# Data published in patent publication US20240270811A1, “Glycosylated Neuropeptide Derivative, Pharmaceutical Composition, Intranasal/Nasal Drop Formulation, and Use of Pharmaceutical Composition” (Tokyo University of Science Foundation, priority 2021, published 2024).
# Where no end group is shown, it is not given here. The star is where a group is joined. X1 = CC(=O)N[C@@H]1[C@@H](O)[C@H](O[C@@H]2O[C@H](CO)[C@@H](O[C@@H]3O[C@H](CO[C@H]4O[C@H](CO)[C@@H](O)[C@H](O)[C@@H]4O[C@@H]4O[C@H](CO)[C@@H](O[C@@H]5O[C@H](CO[C@]6(C(=O)O)C[C@H](O)[C@@H](NC(C)=O)[C@H]([C@H](O)[C@H](O)CO)O6)[C@H](O)[C@H](O)[C@H]5O)[C@H](O)[C@H]4NC(C)=O)[C@@H](O)[C@H](O[C@H]4O[C@H](CO)[C@@H](O)[C@H](O)[C@@H]4O[C@@H]4O[C@H](CO)[C@@H](O[C@@H]5O[C@H](CO[C@]6(C(=O)O)C[C@H](O)[C@@H](NC(C)=O)[C@H]([C@H](O)[C@H](O)CO)O6)[C@H](O)[C@H](O)[C@H]5O)[C@H](O)[C@H]4NC(C)=O)[C@@H]3O)[C@H](O)[C@H]2NC(C)=O)[C@@H](CO)O[C@H]1NC(=O)C*
# How the values were obtained:
# [1] = Distribution in brain by immunostaining of frozen brain sections (Example 6); format: in vivo, mouse; settings: 3.0 nmol/4 μL intranasal
# Protocol: The distribution in the brain of a glycosylated GLP-2 derivative (11-sugar) after intranasally administered was evaluated by preparing frozen brain sections and subjecting the same to immunostaining. The brain sections were prepared from tissues around the hippocampus (HIP), dorsomedial nucleus of the hypothalamus (DMH), olfactory bulb (OB), and pons/principal sensory nucleus of trigeminal nerve (Pr5). The olfactory bulb includes olfactory nerves, which are assumed to be a pathway for the migration of GLP-2.
# (§1) After anesthetizing 7-week-old male ddY mice with isoflurane using an all-in-one small animal anesthetizer, a 16% DMSO solution of a PAS-CPP-GLP-2 derivative (11-sugar) (3.0 nmol/4 μL) or 16% DMSO as a control was intranasally administered to the mice by the amount of 2 μL per nose cavity, 4 μL in total. The brain was isolated 5 minutes after the administration and 20 minutes after administration.
# The brain isolated 5 minutes after the intranasal administration was subjected to infiltration fixation with 4% PFA at 4° C. overnight without performing perfusion fixation. The isolation of the brain 20 minutes after the intranasal administration was performed by the following process.
# The mouse is fixed in a supine position under anesthesia with isoflurane, and the chest was incised. PBS and 4% PFA were perfused, in this order, from the left chamber of the heart throughout the whole body for fixing the tissue. The isolated brain was preserved in a 4% PFA solution. On the day following the isolation, the brain samples were substituted with 20% sucrose overnight (4° C.), and further with 30% sucrose overnight (4° C.). Thereafter, a frozen section with a thickness of 30 μm was prepared using a cryostat (CM3050S; Leica Microsystems).
# The frozen brain section was mounted on a slide glass, and a circle was drawn around the section with a liquid blocker. A blocking buffer was added inside the circle and the section was subjected to blocking for 30 minutes at room temperature. Thereafter, the section was added with a first antibody solution including a GLP-2 polyclonal antibody, diluted 200 times with a blocking solution, and subjected to incubation for 1 hour at room temperature. After washing three times with 1×PBS, the section was added with a second antibody solution including Alexa Fluor (trademark) 568 Goat Anti-Mouse IgG H&L, diluted 500 times with a BSA/PBS solution, and subjected to incubation for 1 hour at room temperature. After washing three times with 1×PBS, the section was mounted with ProLong (trademark) Diamond Antifade Mountant. After confirming the solidification of the mountant, the section was subjected to fluorescent observation and imaging with a confocal laser microscope (TCS SP8; Leica) and a software (Leica Application Suite X Software; Leica).
# [2] = Observation of section of trigeminal nerve after intranasal administration (FITC-labelled); format: in vivo, mouse; settings: 3.0 nmol/4 μL intranasal, 5 minutes
# Protocol: as §1, with “(11-sugar) labeled with FITC” for “(11-sugar)”, “trigeminal nerve” for “brain”, “the” for “the administration and 20 minutes after”
# The trigeminal nerve was subjected to infiltration fixation with 4% PFA overnight. On the day following the isolation, the trigeminal nerve was substituted with 20% sucrose overnight (4° C.), and further with 30% sucrose overnight (4° C.). Thereafter, a frozen section with a thickness of 20 μm was prepared using a cryostat (CM3050S; Leica Microsystems).
# The frozen section was mounted on a slide glass, and a circle was drawn around the section with a liquid blocker. To the inner side of the circle, 10 mM CuSO4/CH3COONH4 having an ability to suppress auto-fluorescence was added to immerse the section for 15 minutes. After washing three times with 1×PBS, a blocking buffer was added inside the circle and the section was subjected to blocking for 30 minutes at room temperature. […]
# [3] = Observation of section of trigeminal lemniscus after intranasal administration; format: in vivo; settings: 3.0 nmol/mouse intranasal, 15 minutes
# Protocol: Mice were intranasally administered with 16% DMSO or a glycosylated GLP-2 derivative (3.0 nmol/mouse). The brain was isolated 15 minutes after the administration, and was subjected to infiltration fixation with 4% PFA overnight. On the day following the isolation, the brain was substituted with 30% sucrose overnight (4° C.). Thereafter, a frozen section of trigeminal lemniscus with a thickness of 30 μm was prepared using a cryostat (CM3050S; Leica Microsystems, WetZlar, Germany).
# The frozen section was mounted on a slide glass, and was subjected to blocking for 30 minutes at room temperature with a blocking buffer. Thereafter, the section was added with a first antibody solution including Neuro-Chrom (trade name) Pan Neuronal Marker Antibody-Rabbit, diluted with a blocking buffer (1:500), and subjected to incubation overnight (4° C.). After washing three times with 1×PBS, the section was added with a first antibody solution including a GLP-2 polyclonal antibody diluted with a BSA/PBS solution (1:200), and subjected to incubation for 2 hours at room temperature. After washing three times with 1×PBS, the section was added with a second antibody solution including Alexa Fluor (trademark) 568 Goat Anti-Mouse IgG H&L, diluted 1000 times with a 1% BSA/PBS solution and DAPI ([…]), and subjected to incubation for 1 hour at room temperature. […]
substance,measurement,setting,value
FFLIPKGRRRRRRRRGGHADGSFSDEMNTILDNLAARDFINWLIQTKITDC(X1)-OH [PAS-CPP-GLP-2 (11-sugar)],fluorescence at region around Pr5,[1]; 5 minutes,fluorescence was observed intensely
same,"fluorescence at the other regions (HIP, DMH, OB)",[1]; 5 minutes,very little fluorescence was observed
same,fluorescence at DMH,[1]; 20 minutes,observed clearly
same,fluorescence at HIP,[1]; 20 minutes,fluorescence was observed
same,fluorescence at Pr5,[1]; 20 minutes,florescence was observed
same,fluorescence intensity at OB,[1]; 20 minutes,weak
same,fluorescence in section of trigeminal nerve (overlap of derivative and neural fibers),[2],expresses yellow fluorescence
same,fluorescence in nerve bundle that constitutes the trigeminal lemniscus,[3],a large amount of fluorescence for a drug was observed
